≈ marks a conversion by molar mass, not a printed value. Blank lines part the entries; values can stand above or below the compound they belong to.
How the values were obtained:
Experiment in all cases: ≥ marks a high value that may be exact or a test limit, other limits are often not marked, values filed in µg/mL are converted to µM
[1] = system: Lacticaseibacillus casei ATCC 393
[2] = system: Lactobacillus acidophilus ATCC 4356
[3] = system: Klebsiella pneumoniae ATCC 27736
[4] = system: Streptococcus mutans UA159
[5] = system: Limosilactobacillus fermentum ATCC 9338
[6] = system: Sporothrix schenckii
[7] = system: Staphylococcus aureus ATCC 700699
[8] = system: Bacillus subtilis ATCC 6633
[9] = system: Staphylococcus aureus ATCC BAA-44
[10] = system: Staphylococcus aureus ATCC 29213
[11] = system: Candida albicans ATCC 10231
[12] = system: Staphylococcus aureus ATCC 25923
[13] = system: Candida parapsilosis ATCC 22019
[14] = system: Staphylococcus aureus ATCC 700698
[15] = system: Streptococcus sobrinus ATCC 6715
[16] = system: Streptococcus gordonii ATCC 10558
[17] = system: Staphylococcus aureus ATCC 33592
[18] = system: Pseudomonas aeruginosa ATCC BAA-427
[19] = system: Actinomyces naeslundii ATCC 12104
[20] = system: Actinomyces viscosus ATCC 15987
[21] = system: Streptococcus sanguinis ATCC 10556
[22] = system: Escherichia coli ATCC 9637
[23] = system: Enterococcus faecalis ATCC 29212
[24] = system: Cryptococcus neoformans
[25] = system: Bacillus subtilis IAM 1026
[26] = system: Photobacterium damselae subsp. piscicida Sp 9587
[27] = system: Vibrio parahaemolyticus Vp+1
[28] = system: Shewanella putrefaciens IAM 1509
[29] = system: Escherichia coli JCM 1649
[30] = system: Staphylococcus aureus IAM 1011
[31] = system: Salmonella typhimurium
[32] = system: Vibrio anguillarum NCIMB 829
[33] = system: Aeromonas salmonicida NCIMB 1102
[34] = system: Streptococcus mitis ATCC 903
[35] = system: Pseudomonas aeruginosa PAK
[36] = system: Streptococcus gordonii Challis DL1
[37] = system: Streptococcus sanguinis NY101
[38] = system: Staphylococcus aureus
[39] = system: Micrococcus luteus ATCC 10240
[40] = system: Escherichia coli DSM 1103
[41] = system: Bacillus subtilis DSM 347
[42] = system: Escherichia coli DC2
[43] = system: Klebsiella pneumoniae DSM 681
[44] = system: Escherichia coli BL21AI
[45] = system: Bacillus subtilis IFO 3336
[46] = system: Escherichia coli IFO 3301
[47] = system: Xanthomonas campestris pv. Vesicatoria 2133-2
[48] = system: Erwinia amylovora PMV 6076
[49] = system: Xanthomonas fragariae Xf349-9A
[50] = system: Xanthomonas arboricola pv. pruni CFBP 5563
[51] = system: Pseudomonas syringae pv. syringae EPS 94
[52] = system: Pseudomonas syringae pv. actinidiae Psa3700.1.1

MIC [25]: 2.03 µM (≈ 3.13 µg/mL)
MIC [26]: 4.05 µM (≈ 6.25 µg/mL)
MIC [28]: 4.05 µM (≈ 6.25 µg/mL)
MIC [29]: ≥ 32.4 µM
MIC [30]: 2.03 µM (≈ 3.13 µg/mL)
MIC [31]: ≥ 32.4 µM
MIC [32]: 8.09 µM (≈ 12.5 µg/mL)
MIC [33]: ≥ 32.4 µM
Compound: CC[C@H](C)[C@H](NC(=O)CNC(=O)CNC(=O)[C@@H](NC(=O)[C@@H](N)Cc1ccccc1)[C@@H](C)CC)C(=O)N[C@H](C(=O)N[C@@H](CO)C(=O)N[C@@H](Cc1ccccc1)C(=O)N[C@@H](Cc1ccccc1)C(=O)N[C@@H](CCCCN)C(=O)N[C@@H](CCCN=C(N)N)C(=O)N[C@@H](CC(C)C)C(=O)N[C@@H](Cc1ccccc1)C(=O)O)[C@@H](C)CC [FIGGIISFFKRLF]
MIC [27]: 16.2 µM (≈ 25 µg/mL)

MIC [4]: 1.3 µM (≈ 4 µg/mL)
MIC [34]: 10.4 µM (≈ 32 µg/mL)
MIC [35]: 20.3 µM (≈ 62.5 µg/mL)
MIC [36]: 20.3 µM (≈ 62.5 µg/mL)
MIC [37]: 5.21 µM (≈ 16 µg/mL)
MIC [38]: 5.21 µM (≈ 16 µg/mL)
Compound: CC[C@H](C)[C@H](NC(=O)[C@H](Cc1ccccc1)NC(=O)[C@H](Cc1cnc[nH]1)NC(=O)[C@H](CCCCN)NC(=O)[C@@H](NC(=O)[C@@H](N)Cc1ccccc1)[C@@H](C)CC)C(=O)N[C@@H](Cc1cnc[nH]1)C(=O)N[C@@H](CCCN=C(N)N)C(=O)N[C@@H](Cc1ccccc1)C(=O)NCC(=O)NCC(=O)NCC(=O)N[C@@H](Cc1ccccc1)C(=O)N[C@@H](CCCCN)C(=O)N[C@@H](CCCCN)C(=O)N[C@@H](Cc1ccccc1)C(=O)N[C@@H](Cc1c[nH]c2ccccc12)C(=O)N[C@@H](CCCCN)C(=O)N[C@@H](Cc1c[nH]c2ccccc12)C(=O)N[C@@H](Cc1ccccc1)C(=O)N[C@@H](CCCN=C(N)N)C(=O)N[C@@H](CCCN=C(N)N)C(=O)N[C@@H](Cc1ccccc1)C(N)=O [FIKHFIHRFGGGFKKFWKWFRRF]

More lines, now with the values behind:

Compound: CC[C@H](C)[C@H](NC(=O)[C@H](C)NC(=O)[C@H](CCCCN)NC(=O)CNC(=O)[C@H](C)NC(=O)[C@H](Cc1cnc[nH]1)NC(=O)[C@@H](NC(=O)[C@H](C)NC(=O)CNC(=O)[C@H](CCCCN)NC(=O)[C@@H](NC(=O)[C@H](CC(C)C)NC(=O)[C@H](Cc1c[nH]c2ccccc12)NC(=O)CNC(=O)[C@H](Cc1ccccc1)NC(=O)[C@@H](N)Cc1ccccc1)[C@@H](C)CC)[C@@H](C)CC)C(=O)N[C@@H](Cc1cnc[nH]1)C(=O)NCC(=O)N[C@@H](CC(C)C)C(=O)N[C@H](C(=O)N[C@@H](Cc1cnc[nH]1)C(=O)N[C@@H](CCCN=C(N)N)C(=O)N[C@@H](CCCN=C(N)N)C(=O)N[C@@H](CCCN=C(N)N)C(=O)N[C@@H](Cc1cnc[nH]1)C(=O)O)[C@@H](C)CC [FFGWLIKGAIHAGKAIHGLIHRRRH]
MIC [1]: 1.38 µM (≈ 4 µg/mL)
MIC [2]: 1.96 µM (≈ 5.66 µg/mL)
MIC [3]: 3 µM (≈ 8.68 µg/mL)
MIC [4]: 1.38 µM (≈ 4 µg/mL)
MIC [5]: 1.38 µM (≈ 4 µg/mL)
MIC [6]: 13.6 µM (≈ 39.3 µg/mL)
MIC [7]: 1.6 µM (≈ 4.63 µg/mL)
MIC [8]: 6 µM (≈ 17.4 µg/mL)
MIC [9]: 1.6 µM (≈ 4.63 µg/mL)
MIC [10]: 1.6 µM (≈ 4.63 µg/mL)
MIC [11]: 6.8 µM (≈ 19.7 µg/mL)
MIC [12]: 3 µM (≈ 8.68 µg/mL)
MIC [13]: 3 µM (≈ 8.68 µg/mL)
MIC [14]: 3 µM (≈ 8.68 µg/mL)
MIC [15]: 1.38 µM (≈ 4 µg/mL)
MIC [16]: 2.77 µM (≈ 8 µg/mL)
MIC [17]: 1.6 µM (≈ 4.63 µg/mL)
MIC [18]: 6.8 µM (≈ 19.7 µg/mL)
MIC [19]: 2.77 µM (≈ 8 µg/mL)
MIC [20]: 2.77 µM (≈ 8 µg/mL)
MIC [21]: 1.96 µM (≈ 5.66 µg/mL)
MIC [22]: 3.4 µM (≈ 9.83 µg/mL)
MIC [23]: 3.91 µM (≈ 11.3 µg/mL)
MIC [24]: 3 µM (≈ 8.68 µg/mL)

Compound: CC[C@H](C)[C@H](NC(=O)[C@H](Cc1ccc(O)cc1)NC(=O)[C@@H](NC(=O)[C@@H]1CCCN1C(=O)[C@H](CCCN=C(N)N)NC(=O)[C@H](CC(N)=O)NC(=O)[C@H](CC(N)=O)NC(=O)CNC(C)=O)C(C)C)C(=O)N1CCC[C@H]1C(=O)N[C@@H](CCCN=C(N)N)C(=O)N1CCC[C@H]1C(=O)N[C@@H](CCCN=C(N)N)C(=O)N1CCC[C@H]1C(=O)N1CCC[C@H]1C(=O)N[C@@H](Cc1cnc[nH]1)C(=O)N1CCC[C@H]1C(=O)N[C@@H](CCCN=C(N)N)C(=O)N[C@@H](CC(C)C)C(N)=O [GNNRPVYIPRPRPPHPRL]
MIC [39]: 0.913 µM (≈ 1.99 µg/mL)
MIC [40]: 1.83 µM (≈ 3.97 µg/mL)
MIC [41]: ≥ 58.5 µM
MIC [42]: 1.83 µM (≈ 3.97 µg/mL)
MIC [43]: 1.83 µM (≈ 3.97 µg/mL)
MIC [44]: 1.49 µM (≈ 3.25 µg/mL)

Compound: NC(N)=NCCC[C@H](NC(=O)[C@H](Cc1cnc[nH]1)NC(=O)[C@H](CCCN=C(N)N)NC(=O)[C@H](Cc1cnc[nH]1)NC(=O)[C@H](CCCN=C(N)N)NC(=O)[C@H](Cc1cnc[nH]1)NC(=O)[C@@H](N)CCCN=C(N)N)C(=O)N[C@@H](Cc1cnc[nH]1)C(=O)O [RHRHRHRH]
MIC [45]: 8.39 µM (≈ 10 µg/mL)
MIC [46]: 8.39 µM (≈ 10 µg/mL)

Compound: CSCC[C@H](NC(=O)[C@@H](NC(=O)[C@H](Cc1ccc(O)cc1)NC(=O)[C@H](CO)NC(=O)[C@H](CS)NC(=O)[C@@H](N)Cc1ccc(O)cc1)[C@@H](C)O)C(=O)N[C@@H](CCC(=O)O)C(=O)N[C@@H](C)C(N)=O [YCSYTMEA]
MIC [47]: ≥ 50 µM
MIC [48]: ≥ 50 µM
MIC [49]: ≥ 50 µM
MIC [50]: ≥ 50 µM
MIC [51]: ≥ 50 µM
MIC [52]: ≥ 50 µM

Source: DBAASP
